This is an account of results in ChEMBL document CHEMBL1201862, “PubChem BioAssay data set” (2004).

Activity calls are given as the source filed them.

Assay [1] can be described thus: insulin promoter down-regulators in MIN6 cells, imaging, high-content screening, mouse beta cells (AID 1628). In kind it is functional.
A short description of assay [2]: cytotoxicity in MIN6 insulinoma cells, dose response, cytotoxicity control, cell-based, mouse insulinoma (AID 2122).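 Note: confirmatory high-throughput counterscreen run to flag cytotoxic compounds; mouse MIN-6 beta cells carrying an insulin promoter eGFP reporter.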 It counts as functional.
The test system of a further assay is Jurkat. The assay is described as follows: SAR Analysis of small molecule inhibitors of […] specific antigen receptor-induced NF-kB activation in a Jurkat cell line using a luminescence assay - Set 3. [Related pubchem assays (depositor defined):AID435022, AID435025, AID465]. In kind it is functional, cell-based. Particulars: Homo sapiens.
Assay [3] concerns HEK293. Kind of assay: SAR Analysis of small molecule inhibitors of B-cell specific antigen receptor-induced NF-kB activation in a HEK-293T cell line using a luminescence assay - Set 2. [Related pubchem assays (depositor defined):AID435022, AID435025, AID489021]. In kind it is functional, cell-based. Particulars: Homo sapiens.
Assay [4] relates to HEK293. Kind of assay: cytotoxicity in HEK293T NF-kB-Luc cells, SAR follow-up, cytotoxicity control for NF-kB activator project, cell-based, resazurin fluorescence (AID 493251). It counts as functional. Particulars: Homo sapiens. (The colour change of resazurin is a common sign of viable cells or microbes.)
The next assay deals with Trypsin (Sus scrofa, UniProt P00761). The assay is described as follows: porcine trypsin inhibitors, dose response, selectivity assay for Rce1 protease inhibitor project, biochemical, quenched peptide fluorescence, cherry-pick (AID 488789).
Trypsin, sequence (P00761 whole entry): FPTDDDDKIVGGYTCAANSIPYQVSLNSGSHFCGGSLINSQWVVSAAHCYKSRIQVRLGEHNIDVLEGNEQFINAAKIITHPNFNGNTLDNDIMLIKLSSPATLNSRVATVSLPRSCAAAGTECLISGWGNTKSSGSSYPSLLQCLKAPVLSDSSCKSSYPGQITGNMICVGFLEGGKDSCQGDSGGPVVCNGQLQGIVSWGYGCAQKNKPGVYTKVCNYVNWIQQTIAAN
Assay [5] is described as follows: HepG2 cell cytotoxicity, dose response, cytotoxicity control for non-replicating M. tuberculosis project (AID 489018). In kind it is functional. As to conditions: Mycobacterium tuberculosis.
Assay [6] can be described thus: Vero E6 cell cytotoxicity, dose response, cytotoxicity control for non-replicating M. tuberculosis project, secondary assay (AID 492998). It counts as functional, VeroE6. As to conditions: Vero C1008.
A further assay deals with CAAX prenyl protease 1 (Saccharomyces cerevisiae S288c, UniProt P47154). The assay is described as follows: Ste24 protease inhibitors, dose response, biochemical, S. cerevisiae, plate reader, cherry-pick (AID 488815).
CAAX prenyl protease 1, sequence (P47154 whole entry): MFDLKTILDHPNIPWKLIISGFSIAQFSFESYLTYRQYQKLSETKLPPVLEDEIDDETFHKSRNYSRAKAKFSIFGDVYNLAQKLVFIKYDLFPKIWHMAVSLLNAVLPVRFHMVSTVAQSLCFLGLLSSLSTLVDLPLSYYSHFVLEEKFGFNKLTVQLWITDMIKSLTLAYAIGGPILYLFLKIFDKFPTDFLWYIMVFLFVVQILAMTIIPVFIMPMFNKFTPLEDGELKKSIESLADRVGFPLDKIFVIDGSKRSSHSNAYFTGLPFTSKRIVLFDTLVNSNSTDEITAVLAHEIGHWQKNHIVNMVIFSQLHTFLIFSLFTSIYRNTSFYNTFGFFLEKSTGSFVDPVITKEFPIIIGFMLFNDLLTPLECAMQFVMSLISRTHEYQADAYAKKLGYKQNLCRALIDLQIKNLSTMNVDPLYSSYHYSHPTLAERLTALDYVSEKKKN
A further assay in a line: cells. It counts as functional.
A further assay deals with T1, CAAX prenyl protease 2 (Homo sapiens, UniProt Q9Y256).
T1 sequence (Q9Y256 whole entry): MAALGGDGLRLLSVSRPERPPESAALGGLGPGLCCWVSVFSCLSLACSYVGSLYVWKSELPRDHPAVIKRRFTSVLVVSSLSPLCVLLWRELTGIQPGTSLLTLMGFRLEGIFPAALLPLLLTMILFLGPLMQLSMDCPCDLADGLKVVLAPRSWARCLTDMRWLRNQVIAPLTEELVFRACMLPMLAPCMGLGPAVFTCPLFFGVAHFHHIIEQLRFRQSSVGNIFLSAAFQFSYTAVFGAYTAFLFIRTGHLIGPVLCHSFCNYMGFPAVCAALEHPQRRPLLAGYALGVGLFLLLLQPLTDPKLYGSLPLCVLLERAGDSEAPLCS
Kind of assay: human Rce1 protease inhibitors, dose response, biochemical, yeast membranes, quenched-peptide fluorescence, cherry-pick (AID 588849).

As to `Nc1c2c(nc3ccc(Br)cc13)N(C1CCCCC1)CC2`, the IC50 (commonly the point on the concentration scale where inhibition reaches its midpoint) was 3.06 µM (active) in assay [1] and 4.61 µM (active) in assay [2].
Regarding `CC(C)(C)c1ccc(-c2noc(CCC(=O)Nc3ccccc3)n2)cc1`, the figures for the IC50 with Jurkat, in the assay on HEK293 [3] and in the assay on HEK293 [4] were 0.473 µM (active), 0.23 µM (active) and > 80 µM (inactive), respectively.
In the case of `Cc1nn2c(NCCN(C)C)c3c(nc2c1-c1ccccc1)CCCC3`, the AC50 – broadly, the concentration giving half of the maximal activity seen – at Trypsin was 12.7 µM (active); on CAAX prenyl protease 1 it was 4.57 µM (active); on CAAX prenyl protease 2 it was 14.3 µM (active). The CC50 (commonly the concentration giving 50% cytotoxicity) was 16.4 µM (active) in assay [5] and > 20 µM (active) in assay [6]. The IC50 in the assay “cells” was 5.84 µM (active).
